test: Benzalkonium chloride adsorption test (soft contact lenses, lens not given); assay type: physicochemical; conditions: α-cyclodextrin replaced by the other cyclodextrin
Protocol: The percent inhibition of benzalkonium chloride adsorption to commercially available soft contact lenses was determined by the following test.
Benzalkonium chloride adsorption test A 30-ml vial was charged with 10 ml of the solution and a soft contact lens was immersed therein. In a constant temperature tank at 25° C., the vial was shaken for 24 hours. After the contact lens was removed from the vial, the concentration of benzalkonium chloride in the solution was quantitatively determined by high performance liquid chromatography. A percent inhibition of adsorption was calculated according to the following formula.
As a control, the above procedure was repeated except that no contact lens was immersed.
Inhibition of adsorption (%)=(concentration of benzalkonium chloride in sample solution)/(concentration of benzalkonium chloride in control solution)×100
Solutions of the formulation shown in Table 7 were prepared to a total amount of 1,000 g in a conventional manner as used in the preparation of eye drops. Ophthalmic solutions of Examples 2 to 13 were obtained. The ophthalmic solutions were subject to the same tests as in Experiments 1 and 3. In the test of Experiment 3, the ophthalmic solutions were evaluated for antimicrobial activity according to the same criterion as before.

| Molecule | Inhibition of adsorption, cyclodextrin in place of α-cyclodextrin (in words) |
| --- | --- |
| OC[C@H]1O[C@@H]2O[C@H]3[C@H](O)[C@@H](O)[C@@H](O[C@H]4[C@H](O)[C@@H](O)[C@@H](O[C@H]5[C@H](O)[C@@H](O)[C@@H](O[C@H]6[C@H](O)[C@@H](O)[C@@H](O[C@H]7[C@H](O)[C@@H](O)[C@@H](O[C@H]8[C@H](O)[C@@H](O)[C@@H](O[C@H]9[C@H](O)[C@@H](O)[C@@H](O[C@H]1[C@H](O)[C@H]2O)O[C@@H]9CO)O[C@@H]8CO)O[C@@H]7CO)O[C@@H]6CO)O[C@@H]5CO)O[C@@H]4CO)O[C@@H]3CO [γ-cyclodextrin] | Approximately equivalent results |
| OC[C@H]1O[C@@H]2O[C@H]3[C@H](O)[C@@H](O)[C@@H](O[C@H]4[C@H](O)[C@@H](O)[C@@H](O[C@H]5[C@H](O)[C@@H](O)[C@@H](O[C@H]6[C@H](O)[C@@H](O)[C@@H](O[C@H]7[C@H](O)[C@@H](O)[C@@H](O[C@H]8[C@H](O)[C@@H](O)[C@@H](O[C@H]9[C@H](O)[C@@H](O)[C@@H](O[C@H]%10[C@H](O)[C@@H](O)[C@@H](O[C@H]1[C@H](O)[C@H]2O)O[C@@H]%10CO)O[C@@H]9CO)O[C@@H]8CO)O[C@@H]7CO)O[C@@H]6CO)O[C@@H]5CO)O[C@@H]4CO)O[C@@H]3CO [δ-cyclodextrin] | Approximately equivalent results |
| hydroxyethylated cyclodextrin | Approximately equivalent results |
| methylated cyclodextrin | Approximately equivalent results |

From US5998488A, “Ophthalmic composition” (Lion Corporation, priority 1994, dated 1999)
